Counter-ions that a name gives are not always drawn. Like-named read-outs stand apart in the source and are kept apart here.

The target in one experiment is T1, PAT domain of PLIN3 (Homo sapiens, UniProt O60664).
T1 sequence (O60664 1-107 limits assumed): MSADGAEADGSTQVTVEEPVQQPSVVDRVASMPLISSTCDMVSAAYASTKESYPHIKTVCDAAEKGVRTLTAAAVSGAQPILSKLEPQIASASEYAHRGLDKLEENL
Kind of experiment: MST binding to the PAT domain of PLIN3. Particulars: short chain lipids as free ligands; n.d. = not detected; Fig. 2B. An excerpt:
(§1) To gain further insight into the binding of PLIN3 to DAG-containing membranes, we examined the contribution of each individual domain of PLIN3 towards lipid binding, that is, the N-terminal PAT domain, the central 11-mer repeat region, and the C-terminally located 4-helix bundle (Fig. 2A). Therefore, we expressed and purified proteins harboring individual domains of PLIN3 and first examined their binding of short-chain lipids.
(§2) Binding of purified PLIN3 protein and PLIN3 domains to liposomes, ALDs, or short chain lipids was determined by MST using a Monolith NT.115 system (Nanotemper Technologies). Proteins were labeled with a RED-tris-NTA His tag protein-labeling reagent following the manufacturer’s instructions (Nanotemper Technologies). Labeled proteins were added to a serial dilution of unlabeled lipids, liposomes, or ALDs, and the mixtures were loaded into MST standard capillaries to assess binding affinities. The dissociation constant was obtained by plotting fluorescence intensities of the protein–lipid complex against the concentrations of the unlabeled lipids, liposomes, or ALDs. Experiments were performed in triplicates and data were fitted using the KD Model of the MO.Affinity Analysis software (https://nanotempertech.com/, Nanotemper Technologies).

Another experiment addresses T2, PLIN3 (Homo sapiens, UniProt O60664).
T2 construct: Plasmids containing human full-length PLIN3 or fragments thereof were obtained by PCR amplification; made in house; host or cells: Escherichia coli BL21 (DE3) or NiCo21 (DE3)
T2 sequence (O60664 1-434): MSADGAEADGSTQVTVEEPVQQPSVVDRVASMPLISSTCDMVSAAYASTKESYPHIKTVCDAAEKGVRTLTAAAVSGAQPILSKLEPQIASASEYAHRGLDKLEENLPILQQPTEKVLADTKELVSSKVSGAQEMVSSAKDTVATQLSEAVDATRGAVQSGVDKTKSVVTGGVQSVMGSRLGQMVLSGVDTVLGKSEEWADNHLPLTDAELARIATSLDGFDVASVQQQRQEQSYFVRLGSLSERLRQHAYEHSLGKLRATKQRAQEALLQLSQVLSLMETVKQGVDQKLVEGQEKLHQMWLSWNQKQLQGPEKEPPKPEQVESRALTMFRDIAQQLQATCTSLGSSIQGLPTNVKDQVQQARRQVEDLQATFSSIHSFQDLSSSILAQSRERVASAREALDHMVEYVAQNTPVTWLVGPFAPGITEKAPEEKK
Kind of experiment: Microscale thermophoresis (MST) binding of lipids, liposomes or ALDs to full-length WT PLIN3. The settings on record: for fold increase of PLIN3 binding versus unspiked DOPC/DOPE liposomes: DOPC/DOPE (80/20 mol%) liposomes, DAG 5 mol%, DOPA 10 mol%.
Excerpt: To corroborate these findings, we analyzed binding of PLIN3 to liposomes using microscale thermophoresis (MST), an immobilization-free technology for measuring biomolecular interactions based on the diffusion of a fluorescently labeled protein along a microscopic temperature gradient. In this assay, the free protein diffuses faster than the one which has bound to a ligand. Ligands can range from small ions to low molecular weight compounds, liposomes, or even viruses ([24], [25], [26], [27], [28]). Variations in fluorescence intensity are then plotted against the ligand concentrations to determine a binding affinity. […] To determine the optimal DAG concentrations for PLIN3 binding, we varied the DAG concentrations in the ER-liposomes between 0 to 20 mol%.
as §2
On the technique in general: Microscale thermophoresis detects binding through changes in fluorescence in a small temperature gradient.

The target of a further experiment is T3, 4-helix bundle of PLIN3 (Homo sapiens, UniProt O60664).
T3 sequence (O60664 245-434 limits assumed): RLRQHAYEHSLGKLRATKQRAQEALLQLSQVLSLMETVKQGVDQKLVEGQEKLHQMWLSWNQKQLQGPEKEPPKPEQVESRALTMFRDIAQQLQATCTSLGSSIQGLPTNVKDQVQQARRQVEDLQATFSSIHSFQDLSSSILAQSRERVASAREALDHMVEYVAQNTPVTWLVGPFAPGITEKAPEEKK
Kind of experiment: MST binding to the 4-helix bundle of PLIN3.
Excerpt: as §1, §2

The target in experiment [1] is T4, 11-mer repeat region of PLIN3 (Homo sapiens, UniProt O60664).
T4 sequence (O60664 115-179 limits assumed): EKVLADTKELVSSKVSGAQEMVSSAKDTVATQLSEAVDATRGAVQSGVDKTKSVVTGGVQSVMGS
Briefly: MST binding to the 11-mer repeat region of PLIN3. The settings on record: short chain lipids as free ligands; n.d. = not detected; Fig. 2B.
Excerpt: as §1, §2

The target of a further experiment is T5, His-tagged human PLIN3 (Homo sapiens, UniProt O60664).
T5 construct: Plasmids containing human full-length PLIN3 or fragments thereof were obtained by PCR amplification; made in house; host or cells: Escherichia coli BL21 (DE3) or NiCo21 (DE3)
T5 sequence (O60664 1-434): T2 sequence (O60664 1-434)
Briefly: Liposome flotation assay on a sucrose gradient, PLIN3 detected by Western blotting. Format: binding. Particulars: ER-liposomes containing 16:0 DAG at 5 mol%; top layer of sucrose gradient. As to the method:
To examine the interaction between soluble PLIN3 and membranes containing DAG, we first performed liposome-binding assays. Therefore, purified His-tagged human PLIN3 was incubated with liposomes prepared from a phospholipid mixture that mimics the composition of the ER membrane (DOPC/DOPE/DOPS/DOPA/SoyPI, 53/23/8/5/11 mol%; hereafter termed ER-liposomes) lacking or containing low concentrations of DAG (16:0 DAG; 5 mol%). Liposomes were then floated on a sucrose gradient, and PLIN3 binding was monitored by Western blotting.
Purified PLIN3 was incubated with liposomes for 1 h at RT and then gently mixed with an equal volume of 60% (w/v) sucrose solution in liposome buffer to obtain a final sucrose concentration of 30%. This mixture was overlaid with two volumes of 20% sucrose solution, two volumes of 10% sucrose solution, and one volume of liposome buffer. The samples were centrifuged at 177,000g for 1 h at 20 °C. Four fractions were collected from the top of the gradient and the distribution of PLIN3 was analyzed by Western blotting. Signal intensities were quantified using ImageJ (https://imagej.net/ij/) software.
(In general: A western blot detects proteins with antibodies after separation by electrophoresis.)

Setting [2] is: ER-liposomes supplemented with the named DAG at 5 mol%, KD against liposome concentration, Fig. 1C, read-out: KD.

One may read the Kd as a measure of binding affinity in units of concentration. Regarding `CCCCCCCC(=O)OCC(COC(=O)CCCCCCC)OC(=O)CCCCCCC` [8:0 TAG, 1,2,3-trioctanoylglycerol], the Kd at PAT domain of PLIN3 stood at 17.3 µM; on PLIN3 (short chain lipid as free ligand, Fig. 1I, Fig. 4C, read-out: KD) it was 0.27 µM.

With `CC(C)CCC[C@@H](C)[C@H]1CC[C@H]2[C@@H]3CC=C4C[C@@H](O)CC[C@]4(C)[C@H]3CC[C@]12C` [cholesterol], on PLIN3 (ER-liposomes supplemented with 20 mol% cholesterol, Fig. 1E, read-out: KD), the Kd is 64.9 µM.

`CCCCCCCC(=O)OC[C@H](COP(=O)(O)O)OC(=O)CCCCCCC` [8:0 PA, 1,2-dioctanoyl-sn-glycero-3-phosphate sodium salt] returned a dissociation constant (Kd) at PAT domain of PLIN3 of 14.1 µM.

For the compound `CCCCCCC(=O)OC[C@H](COP(=O)([O-])OCC[N+](C)(C)C)OC(=O)CCCCCC` [7:0 PC, 1,2-diheptanoyl-sn-glycero-3-phosphocholine], the Kd at PLIN3 was determined as 214 ± 71 µM; at 4-helix bundle of PLIN3, 88.5 ± 28.8 µM.

`CCCCCCCC(=O)OC[C@H](COP(=O)(O)OC[C@H](N)C(=O)O)OC(=O)CCCCCCC` [8:0 PS, 1,2-dioctanoyl-sn-glycero-3-phospho-L-serine sodium salt]: the Kd in experiment [1] stood at 471 ± 53.8 µM; on PAT domain of PLIN3, 106 ± 30.5 µM.

For `CCCCCCCC/C=C\CCCCCCCC(=O)OC[C@H](COP(=O)(O)O)OC(=O)CCCCCCC/C=C\CCCCCCCC` [18:1 PA, 1,2-dioleoyl-sn-glycero-3-phosphate], the “fold increase of PLIN3 binding versus unspiked DOPC/DOPE liposomes” value on PLIN3 came out at 9 fold. Also, at PLIN3 (PC/PE liposomes (DOPC/DOPE; 80/20 mol%) spiked with the named lipid at 10 mol%, n.d. = not detected, Fig. 1H, read-out: KD), the Kd came out at 58.1 µM.

Regarding `CCCCCCCC/C=C\CCCCCCCC(=O)OC[C@H](CO)OC(=O)CCCCCCC/C=C\CCCCCCCC` [18:1 DAG, 1,2-dioleoyl-sn-glycerol], the Kd at PLIN3 (setting [2]) is 60.1 µM.

As for `CCCCCCCCCCCCCCCC(=O)OC[C@H](CO)OC(=O)CCCCCCCCCCCCCCC` [16:0 DAG, 1,2-dipalmitoyl-sn-glycerol], at His-tagged human PLIN3, the “fraction of PLIN3 recovered from liposomes” value came out at 13.9%. Also, the “fold increase of PLIN3 binding versus unspiked DOPC/DOPE liposomes” value on PLIN3 is reported as 36 fold. On PLIN3 (ER-liposomes containing 16:0 DAG at 5 mol%), the “fold lower dissociation constant than ER-liposomes lacking DAG” value is recorded as 29 fold. Further, the Kd turned out to be 20.6 µM at PLIN3 (setting [2]) and 15 µM at PLIN3 (PC/PE liposomes (DOPC/DOPE; 80/20 mol%) spiked with 16:0 DAG at 5 mol%, Fig. 1H, read-out: KD).

Values taken from PMC10694602, “Binding of perilipin 3 to membranes containing diacylglycerol is mediated by conserved residues within its PAT domain” (The Journal of Biological Chemistry, 2023).
